Measurements published in ChEMBL document CHEMBL1125293 (J Med Chem, 1992).

These compounds were tested against T1, Substance-P receptor (Rattus norvegicus, UniProt P14600) (assay: Inhibition of [125]I-Bolton Hunter Substance P([125]I-BHSP) binding to Tachykinin receptor 1 from rat forebrain membranes.).
T1 sequence (P14600 whole entry): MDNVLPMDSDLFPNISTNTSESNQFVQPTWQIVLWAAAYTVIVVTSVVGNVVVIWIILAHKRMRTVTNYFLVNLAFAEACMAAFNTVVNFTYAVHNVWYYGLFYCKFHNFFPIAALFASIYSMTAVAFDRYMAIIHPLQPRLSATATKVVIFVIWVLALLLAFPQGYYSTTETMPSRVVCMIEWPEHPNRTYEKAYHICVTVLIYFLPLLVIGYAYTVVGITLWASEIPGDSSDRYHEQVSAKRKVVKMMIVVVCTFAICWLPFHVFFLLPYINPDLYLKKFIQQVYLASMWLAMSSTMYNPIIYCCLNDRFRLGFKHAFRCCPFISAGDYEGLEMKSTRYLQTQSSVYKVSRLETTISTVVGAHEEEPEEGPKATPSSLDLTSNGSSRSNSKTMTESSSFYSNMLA
Assay type: cell membranes, Membrane
CC#C[C@]1(O)CCC2C3CCC4Cc5nc6nc7ccccc7n6cc5C[C@]4(C)C3CC[C@@]21C (stereo not given in full) gave an IC50 of 0.18 µM. C[C@]12Cc3cn4c(nc3CC1CCC1C2CC[C@]2(C)C(=O)CCC12)nc1ccccc14 (stereo not given in full) gave an IC50 of over 10 µM. COC(=O)[C@H]1CCC2C3CCC4Cc5nc6nc7ccccc7n6cc5C[C@]4(C)C3CC[C@@]21C (stereo not given in full) gave an IC50 of over 10 µM. In the case of C#CC[C@]1(O)CCC2C3CCC4Cc5nc6nc7ccccc7n6cc5C[C@]4(C)C3CC[C@@]21C (stereo not given in full), the IC50 is reported as 0.32 µM. Compound CC(C)CCCC(C)[C@@H]1CCC2C3CCC4Cc5nc6nc7ccccc7n6cc5C[C@]4(C)C3CC[C@@]21C (stereo not given in full) has an IC50 of over 10 µM. Work on C[C@]12Cc3cn4c(nc3CC1CCC1C2CC[C@@]2(C)C1CC[C@@]2(O)c1ccccc1)nc1ccccc14 (stereo not given in full) yielded an IC50 of over 10 µM. For C[C@]12CCC3C(CC[C@@H]4Cc5nc6nc7ccccc7n6cc5C[C@]34C)C1CC[C@@H]2O (stereo not given in full), the IC50 was over 10 µM. Work on c1ccc2c(c1)nc1nc3c(cn12)CCCC3 yielded an IC50 of over 10 µM.

These compounds were tested against T1, Substance-P receptor.
Assay type: cell membranes, Membrane
In the case of C[C@@]12CCCC1C1CCC3Cc4nc5nc6ccccc6n5cc4C[C@]3(C)C1CC2 (stereo not given in full), the IC50 is reported as over 10 µM. Work on C=C[C@]1(O)CCC2C3CCC4Cc5nc6nc7ccccc7n6cc5C[C@]4(C)C3CC[C@@]21C (stereo not given in full) yielded an IC50 of 0.086 µM. C[C@]12Cc3cn4c(nc3CC1CCC1C2CC[C@@]2(C)C1CC[C@]2(C)O)nc1ccccc14 (stereo not given in full) was tested, and the IC50 was 0.2 µM. With C#C[C@]1(OC)CCC2C3CCC4Cc5nc6nc7ccccc7n6cc5C[C@]4(C)C3CC[C@@]21C (stereo not given in full) the IC50 was over 10 µM. Cc1cc(C)n2c(n1)nc1ccccc12 gave an IC50 of over 10 µM. In the case of C#C[C@]1(O)CCC2C3CC[C@H]4Cc5nc6cc7ccccc7n6cc5C[C@]4(C)C3CC[C@@]21C (stereo not given in full), the IC50 is reported as over 10 µM. C#C[C@]1(O)CCC2C3CC[C@H]4Cc5nc6[nH]c7ccccc7c6cc5C[C@]4(C)C3CC[C@@]21C (stereo not given in full) gave an IC50 of over 10 µM. C#C[C@]1(O)CCC2C3CC[C@H]4Cc5nc6nc7cc8ccccc8cc7n6cc5C[C@]4(C)C3CC[C@@]21C (stereo not given in full) showed an IC50 of 0.32 µM. Compound COC(=O)CCC(C)[C@H]1CCC2C3C(C[C@H](O)[C@@]21C)[C@@]1(C)Cc2cn4c(nc2CC1C[C@H]3O)nc1ccccc14 (stereo not given in full) has an IC50 of over 2.5 µM. Work on CC(CCC(=O)O)[C@H]1CCC2C3C(C[C@H](O)[C@@]21C)[C@@]1(C)Cc2cn4c(nc2CC1C[C@H]3O)nc1ccccc14 (stereo not given in full) yielded an IC50 of over 10 µM. With C=CC1=CCCC2Cc3nc4nc5ccccc5n4cc3C[C@]12C (stereo not given in full) the IC50 was over 10 µM. With C[C@]12Cc3cn4c(nc3CC1CCC1C2CC[C@@]2(C)C1CC[C@@H]2O)nc1ccccc14 (stereo not given in full) the IC50 was 0.22 µM.
